m = 2'-O-methyl; r = 2'-OH (RNA); f = 2'-fluoro
Assays:
mouse = conditions: cited from earlier work
[1] = in vivo; cited from earlier work
humans = conditions: cited from earlier work
[2] = Pharmacokinetics of cotinine-pegaptanib and its anti-cotinine IgG complex in mice (serum VEGF ELISA); assay type: in vivo; conditions: ICR mouse, tail vein, 0.135 mg/kg
Procedure: Male wild-type ICR mouse aged from 4 to 6 weeks were injected through tail vein with cotinine-pegaptanib (0.135 mg/kg) and a cotinine-pegaptanib (0.135 mg/kg)/anti-cotinine IgG (1 mg/kg) complex, diluted in 100 μL of PBS. Each peripheral blood was obtained through the orbital plexus at 0, 0.5, 1, 1.5 and 2 hours after the injection, and the obtained peripheral blood was maintained at a room temperature for 30 minutes then centrifuged at 800 g for 15 minutes to collect supernatant only so that serum was obtained, and analyzed by using ELISA.
Each well of a 96-well ELISA plate was coated with 50 ng of human VEGF dissolved in PBS overnight, and then blocked by PBSB. Then, each serum was diluted in PBSB at a ratio of 1:100, and added to each well with 100 nM of an anti-cotinine IgG The plate was maintained at a room temperature for one hour and washed with PBS-T, and then HRP-bound rabbit anti-human Fc specific IgG (Thermo Fisher Scientific) was added to each well. The resultant mixture was maintained at room temperature for one hour. Subsequently, 3,3′,5,5′-tetramethylbenzidine (TMB) (Thermo Fisher Scientific) was added as a substrate to the resultant mixture, and kept at a room temperature for 15 minutes, followed by measuring the optical density at 650 nm.

Row | Compound | LD50 (mouse) [mg/kg] | half-life in serum [1] | side effects (humans; 4-day administration at a daily dose of 1.8 g) | physiological activity; physiological and behavioral changes (humans; humans, maximally 160 mg for three days) | degradation after injection into the body [2]
1 | CN1C(=O)CC[C@H]1c1cccnc1 [cotinine] | 2000 to 4000 | about 16 hours | no particular side effects have not been reported | any physiological and behavioral changes have not been reported | –
2 | cotinine-pegaptanib: nucleic acid part of pegaptanib RNA aptamer (SEQ ID NO: 5) conjugated with cotinine via amino C6 linker (CGGAAUCAGUGAAUGCUUAUACAUCCG; sugars from the 5' end fmmrrffmmfmmmfmfffmfmfmfffm, backbone not given here; cotinine conjugated via amino C6 linker, further chemistry not fully specified) | – | – | – | – | degraded immediate after injection into the body
